In US20230093975A1, “I[…] FOR TREATING CENTRAL NERVOUS SYSTEM DISORDERS” (priority 2021, published 2023):
Like-named read-outs stand apart in the source and are kept apart here.

How the values were obtained:
[1] = Oral rivastigmine pharmacokinetics and estimated CSF uptake (Exelon label); format: in vivo; conditions: plasma volume 2750 mL, CSF volume 150 mL
Experimental: Drug coating and formulation development. The absolute bioavailability of oral rivastigmine is approximately 40%, and the AUC1-12 h cerebral spinal fluid (CSF)/plasma ratio is about 40% (Novartis Exelon® Capsules and Oral Solution Prescribing Information). An estimated 0.87% of the rivastigmine oral dose is absorbed and distributed into the CSF. Thus, the daily CSF uptake of this drug is estimated to be between 26-105 μg. As a starting point for the formulation development, we will first target to formulate a matrix loaded with rivastigmine which will be released over 30 days in a near linear manner. Bilateral administration of the rivastigmine matrix would result in approximately 21-107 μg rivastigmine delivered to CSF/day, assuming a CSF bioavailability between 10-50%.
For oral administration, delivery, an absolute bioavailability of Rivastigmine is about 40% and a mean AUC (area under the curve) 1-12 hr CSF/Plasma is about 40% (Exelon Label). The daily doses delivered to CSF are 26 μg/day, 52 μg/day, 79 μg/day, and 105 μg/day for the oral doses, equating to 1.5 mg BID, 3 mg BID, 4.5 mg BID, and 6 mg BID, respectively. For this estimation, a plasma volume of 2750 mL and a CSF volume of 150 mL are used.

[2] = oral rivastigmine, cited from earlier work

SMILES: CCN(C)C(=O)Oc1cccc([C@H](C)N(C)C)c1 [Rivastigmine]
- share of oral dose absorbed and distributed into the CSF [1]: 0.87%
- AUC1-12 h CSF/plasma ratio [2]: about 40%
- AUC1-12 h CSF/plasma ratio ([2]; listed as rivastigmine): approximately 40%
